This note sets out measurements from patent publication US4782074A (priority 1987, dated 1988).

Format in all cases: in vivo
For one test, the system named is Plasmopara viticola. In words: Grape Downy Mildew control (Example E). The following applies: detached grape leaves, cultivar Emperor, relative to untreated check plants, read-out: % Control GDM. As for the experimental part:
The compounds of the invention were tested for the control of the Grape Downy Mildew organism Plasmopara viticola. Detached leaves, between 70 mm and 85 mm in diameter, 7-week-old Vitis vinifera cultivar Emperor grape seedlings were used as hosts. The leaves were sprayed with a 250-ppm solution of the test compound in acetone. The sprayed leaves were dried, inoculated with a spore suspension of the organism, placed in a humid environmental chamber and incubated at 66° F. to 68° F. and about 100% relative humidity. After incubation for 2 days, the plants were then held in a greenhouse 7 to 9 days; then the amount of disease control was determined. The percent disease control provided by a given test compound was based on the percent disease reduction relative to untreated check plants.

The next test relates to Phytophthora infestans. In words: whole plant or invertebrate. To be noted: in Solanum lycopersicum, 168 h, read-out: % Control TLB.
Another test deals with Septoria apii. Description: whole plant or invertebrate. The following applies: 336 h, read-out: % Control CLB.
Test [1] has as its system Alternaria solani conidia. Description: Tomato Early Blight control (Example D). To be noted: 288 h, tomato seedlings, Bonny Best, inoculated 1 day after spray, relative to untreated check plants, read-out: % Control TEB. As for the experimental part:
Compounds of the invention were tested for the control of the Tomato Early Blight organism Alternaria solani conidia. Tomato (variety Bonny Best) seedlings of 6- to 7-weeks old were used. The tomato plants were sprayed with a 250-ppm solution of the test compound in an acetone-and-water solution containing a small amount of a nonionic emulsifier. The sprayed plants were inoculated 1 day later with the organism, placed in the environmental chamber and incubated at 66° F. to 68° F. and 100% relative humidity for 24 hours. Following the incubation, the plants were maintained in a greenhouse for about 12 days. Percent disease control was based on the percent disease development on untreated check plants.

The subject of the next test is Uromyces phaseoli tipica. Description: Leaf Rust / Bean Rust control (Example F). To be noted: 336 h, pinto bean plants, rated after about 14 days, relative to untreated check plants, read-out: % Control BR. Here is the method: The Leaf Rust test was made using pinto beans. The pathogen was Uromyces phaseoli tipica. The pinto bean plants were sprayed with a 250-ppm solution of the test compound in an acetone-water mixture containing a nonionic emulsifier. The treated plants were inoculated thereafter with the pathogen and then incubated in an environmental chamber for approximately 20 hours at 100% relative humidity and a temperature of 68° F. to 70° F. The plants were then removed from the chamber, allowed to dry, and then maintained in a greenhouse at a 60% to 80% relative humidity. The rate of infection on the leaves was made after about 14 days. The percent disease control provided by a given test compound was based on the percent disease reduction relative to untreated check plants.

Another test concerns Erysiphe polygoni. In words: Bean Powdery Mildew control (Example A). The following applies: 240 h, seedling bean plants, inoculated 1 day after spray, 10 days, relative to untreated check plants, read-out: % Control BPM. Here is the method:
The compounds of the invention were tested for the control of the Bean Powdery Mildew organism Erysiphe polygoni. Seedling bean plants were sprayed with a 250-ppm solution of the test compound in acetone, water and a nonionic emusifier. The sprayed plants were then inoculated 1 day later with the organism. The plants were maintained for 10 days at temperatures of 68° F. at night with daytime temperatures of 72° F. to 80° F.; relative humidity was maintained at 40% to 60%. The percent disease control provided by a given test compound was based on the percent disease reduction relative to the untreated check plants.

For a further test, the system named is Piricularia oryzae. In words: whole plant or invertebrate. To be noted: Pyricularia oryzae, read-out: % Control RB.

With `CCCN(CCCc1ccc(Cl)cc1Cl)C(=O)c1cnccn1` [Compound 26], the pest or weed control at 250 ppm in the test on Plasmopara viticola is 13%; in the test with Phytophthora infestans, 4%; in the test with Septoria apii, 10%; in test [1], 0%; with Uromyces phaseoli tipica, 3%; with Erysiphe polygoni, 11%. Further, the pest or weed control at 625 ppm in the test with Piricularia oryzae amounted to 21%.
With `CCCN(CCSc1c(Cl)cccc1Cl)C(=O)c1cccnc1` [Compound 11, N-(n-propyl), N-(3-pyridylcarbonyl) 2-aminoethanethiol 2,6-dichlorophenylthioether], the pest or weed control at 250 ppm in the test with Plasmopara viticola was found to be 13%; with Phytophthora infestans it was 0%; with Septoria apii, 0%; in test [1], 60%; with Uromyces phaseoli tipica, 0%; in the test with Erysiphe polygoni it was 58%. The pest or weed control at 625 ppm with Piricularia oryzae turned out to be 29%.
